Test results reported in patent US9321764B2, “Dihydro-pyrrolopyridinone inhibitors” (AbbVie Inc., priority 2013, dated 2016).
pEC50, pKi: −log10 of the molar value.

Columns and labels:
BRD4 (BDI_K57-E168) = molecular target: T1, BRD4 (BDI_K57-E168) (Homo sapiens, UniProt O60885); assay: TR-FRET bromodomain binding assay, first bromodomain of BRD4; conditions: His-tagged BD1, 100 nM Alexa647 probe; TR-FRET protocol A-E given per row
T1 construct: BD1: amino acids K57-E168; made in house
Outline: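 Ki values come from IC50s (4-parameter logistic) corrected for probe Kd and concentration, normalised to no-compound and 1 μM unlabelled probe controls. Probe displacement by TR-FRET used 8 nM BD1 (K57-E168), 100 nM Alexa647 probe, 1 nM Eu-anti-His, 20 mM phosphate pH 6.0, 2% DMSO, 1 h, room temperature.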

BRD4 (BDII_E352-M457) = molecular target: T2, BRD4 (BDII_E352-M457) (Homo sapiens, UniProt O60885); assay: TR-FRET bromodomain binding assay, second bromodomain of BRD4; conditions: His-tagged BD2, 30 nM Alexa647 probe; TR-FRET protocol A-E given per row
T2 construct: proliferation; Protocol; made in house
Outline: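 His-tagged BRD4 BD2 ([…]) competed against an Alexa647-labelled BET-inhibitor probe in TR-FRET. Buffer was 20 mM sodium phosphate pH 6.0, 50 mM NaCl, 1 mM EDTA, 0.01% Triton X-100, 1 mM DTT, with method D DMSO series of 2.5 mM–800 nM (stock range). IC50 from 4-parameter fit, Ki from probe Kd and concentration.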

[1] = tested on: breast cancer cell line MX-1; assay: MX-1 cell line proliferation assay; format: cell-based; conditions: Homo sapiens, MX1, 72 h, MX-1 cells, 3-day proliferation assay, Cell Titer Glo; read-out: Cellular proliferation EC50
Outline: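 Final compound concentrations spanned 0.0001 to 3 μM, added to 5000 cells/well plated the previous night in RPMI 1640 plus 10% FBS at 37 °C.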

SMILES | pKi (BRD4 (BDI_K57-E168)) | pKi (BRD4 (BDII_E352-M457)) | pEC50 [1]
Cn1cc(-c2cc(CNCc3c[nH]cn3)ccc2Oc2ccc(F)cc2F)c2cc[nH]c(=O)c21 [Example 119, 3-[2-(2,4-difluorophenoxy)-5-{[(1H-imidazol-4-ylmethyl)amino]methyl}phenyl]-1-methyl-1,6-dihydro-7H-pyrrolo[2,3-c]pyridin-7-one] | 6.22 | 6.32 | < 5.52
Cn1cc(-c2cc(CCl)ccc2Oc2ccc(F)cc2F)c2cc[nH]c(=O)c21 [Example 120, 3-[5-(chloromethyl)-2-(2,4-difluorophenoxy)phenyl]-1-methyl-1,6-dihydro-7H-pyrrolo[2,3-c]pyridin-7-one] | 7.11 | 6.68 | 6.51
Cn1cc(-c2cc(CS(C)(=O)=O)ccc2Nc2ccc(F)cc2)c2cc[nH]c(=O)c21 [Example 121, 3-{2-[(4-fluorophenyl)amino]-5-[(methylsulfonyl)methyl]phenyl}-1-methyl-1,6-dihydro-7H-pyrrolo[2,3-c]pyridin-7-one] | 7.92 | 7.10 | 7.40
Cn1cc(-c2cc(CS(C)(=O)=O)ccc2Nc2ccc(F)cc2F)c2cc[nH]c(=O)c21 [Example 122, 3-{2-[(2,4-difluorophenyl)amino]-5-[(methylsulfonyl)methyl]phenyl}-1-methyl-1,6-dihydro-7H-pyrrolo[2,3-c]pyridin-7-one] | 7.60 | 7.26 | 7.36
Cn1cc(-c2cc(S(=O)(=O)N3CC(F)(F)C3)ccc2OCC2CC2)c2cc[nH]c(=O)c21 [Example 125, 3-{2-(cyclopropylmethoxy)-5-[(3,3-difluoroazetidin-1-yl)sulfonyl]phenyl}-1-methyl-1,6-dihydro-7H-pyrrolo[2,3-c]pyridin-7-one] | 7.16 | 7.04 | 6.57

The next lines start with the values.

pKi (BRD4 (BDI_K57-E168)) | pKi (BRD4 (BDII_E352-M457)) | pEC50 [1] | SMILES
8.08 | 8.24 | 7.09 | CCS(=O)(=O)c1ccc(Oc2ccc(F)cc2F)c(-c2cn(C)c3c(=O)[nH]c(/C=C(\Cl)CCO)cc23)c1 [Example 126, 5-[(1Z)-2-chloro-4-hydroxybut-1-en-1-yl]-3-[2-(2,4-difluorophenoxy)-5-(ethylsulfonyl)phenyl]-1-methyl-1,6-dihydro-7H-pyrrolo[2,3-c]pyridin-7-one]
6.21 | 6.32 | 6.02 | Cn1cc(-c2cc(CNCc3ccoc3)ccc2Oc2ccc(F)cc2F)c2cc[nH]c(=O)c21 [Example 127, 3-[2-(2,4-difluorophenoxy)-5-{[(furan-3-ylmethyl)amino]methyl}phenyl]-1-methyl-1,6-dihydro-7H-pyrrolo[2,3-c]pyridin-7-one]
5.83 | 6.18 | < 5.52 | Cn1cc(-c2cc(CNCCC3CCCC3)ccc2Oc2ccc(F)cc2F)c2cc[nH]c(=O)c21 [Example 128, 3-[5-{[(2-cyclopentylethyl)amino]methyl}-2-(2,4-difluorophenoxy)phenyl]-1-methyl-1,6-dihydro-7H-pyrrolo[2,3-c]pyridin-7-one]
6.61 | 5.94 | < 5.52 | COc1ccccc1S(=O)(=O)NCc1ccc(Oc2ccc(F)cc2F)c(-c2cn(C)c3c(=O)[nH]ccc23)c1 [Example 130, N-[4-(2,4-difluorophenoxy)-3-(1-methyl-7-oxo-6,7-dihydro-1H-pyrrolo[2,3-c]pyridin-3-yl)benzyl]-2-methoxybenzenesulfonamide]
6.55 | 5.90 | 5.85 | Cn1cc(-c2cc(CNS(=O)(=O)Cc3ccc(Cl)cc3)ccc2Oc2ccc(F)cc2F)c2cc[nH]c(=O)c21 [Example 131, 1-(4-chlorophenyl)-N-[4-(2,4-difluorophenoxy)-3-(1-methyl-7-oxo-6,7-dihydro-1H-pyrrolo[2,3-c]pyridin-3-yl)benzyl]methanesulfonamide]
